Test results published in PubChem BioAssay (NCI).
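Assay format: 96-well plates, 48-hour exposure. At the TGI there is no net growth.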

Assays:
Test in all cases: inhibition of tumour cell growth, NCI panel, 48 h
[1] = test system: RXF 393 renal
[2] = test system: M14 melanoma
[3] = test system: SN12C renal
[4] = test system: MDA-MB-435
[5] = test system: A498 renal
[6] = test system: MDA-MB-231 breast
[7] = test system: OVCAR-3 ovarian
[8] = test system: SNB-19 CNS
[9] = test system: NCI-H460 lung
[10] = test system: K-562 leukemia
[11] = test system: U251 CNS
[12] = test system: LOX IMVI melanoma
[13] = test system: HT29 colon
[14] = test system: IGROV1 ovarian
[15] = test system: NCI-H23 lung
[16] = test system: HOP-62 NSCLC
[17] = test system: OVCAR-8 ovarian
[18] = test system: SK-MEL-2 melanoma

Compound | TGI [1] | TGI [2] | TGI [3] | TGI [4] | TGI [5] | TGI [6] | TGI [7] | TGI [8] | TGI [9] | TGI [10] | TGI [11] | TGI [12] | TGI [13] | TGI [14] | TGI [15] | TGI [16] | TGI [17] | TGI [18]
Cc1ccc2c(c1)CC1(Cc3c(C)cccc3C1=O)C2=O (stereo not given) | > 100 µM | > 100 µM | > 100 µM | > 100 µM | > 100 µM | > 100 µM | > 100 µM | > 100 µM | > 100 µM | > 100 µM | > 100 µM | > 100 µM | > 100 µM | > 100 µM | > 100 µM | 71.9 µM | > 100 µM | 
CN(N)/N=N/c1nc[nH]c1[N+](=O)[O-] | > 100 µM | > 100 µM | > 100 µM | > 100 µM | > 100 µM | 60.9 µM | > 100 µM |  | > 100 µM | 73 µM | > 100 µM | > 100 µM | > 100 µM | > 100 µM | > 100 µM | > 100 µM | > 100 µM | > 100 µM
Cc1ccc(N2CCC3(CC2)OCCO3)cc1 | > 100 µM | > 100 µM | > 100 µM | > 100 µM | > 100 µM | > 100 µM | > 100 µM | > 100 µM | > 100 µM | > 100 µM | > 100 µM |  | > 100 µM | > 100 µM | > 100 µM | > 100 µM | > 100 µM | > 100 µM
N#Cc1cc(-c2nc3c(F)cccc3s2)ccc1N | > 100 µM | > 100 µM | > 100 µM | > 100 µM | > 100 µM | > 100 µM | > 100 µM | > 100 µM | > 100 µM | > 100 µM | > 100 µM | > 100 µM | > 100 µM | > 100 µM | > 100 µM | > 100 µM | > 100 µM | 
NC(=S)N/N=C1/CCCC2CCCC[C@@H]12 (stereo not given in full) | > 100 µM | > 100 µM |  | > 100 µM | > 100 µM | > 100 µM | > 100 µM | > 100 µM | > 100 µM | > 100 µM | > 100 µM | > 100 µM | > 100 µM | > 100 µM | > 100 µM | > 100 µM | > 100 µM | > 100 µM
COC(=O)[C@@H](NC(=O)N(CCC#N)CCCN(C(=O)N[C@H](Cc1ccccc1)C(=O)OC)c1ccccc1)C(C)C | > 100 µM | > 100 µM | > 100 µM | > 100 µM | > 100 µM | > 100 µM | > 100 µM | > 100 µM |  |  | > 100 µM | > 100 µM |  | > 100 µM | > 100 µM | > 100 µM | > 100 µM | > 100 µM
O=[N+]([O-])c1cc2c(c([N+](=O)[O-])c1)NCc1ccccc1O2 | > 100 µM |  | > 100 µM | > 100 µM | > 100 µM | > 100 µM | > 100 µM |  | > 100 µM |  | > 100 µM | > 100 µM | > 100 µM | > 100 µM | > 100 µM | > 100 µM | > 100 µM | > 100 µM
